Experiments:
bedstraw = assay: Test B pre/postemergence bedstraw; format: in vivo, Galium aparine
How it was run: (§1)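 Test chemicals in a non-phytotoxic solvent mixture with surfactant were sprayed preemergence onto planted seeds and postemergence onto plants 2 to 18 cm tall (1- to 4-leaf stage). After twelve to sixteen days in a greenhouse, injury was visually rated against untreated controls from 0 (no effect) to 10 (complete control).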

blackgrass = assay: Test B pre/postemergence blackgrass; format: in vivo, Alopecurus myosuroides
How it was run: as §1

surinam grass = assay: Test B pre/postemergence surinam grass; format: in vivo, Brachiaria decumbens
How it was run: as §1

cocklebur = assay: Test B pre/postemergence cocklebur; format: in vivo, Xanthium strumarium
How it was run: as §1

corn = assay: Test B pre/postemergence corn; format: in vivo, Zea mays
How it was run: as §1

crabgrass = assay: Test B pre/postemergence crabgrass; format: in vivo, Digitaria sanguinalis
How it was run: as §1

giant foxtail = assay: Test B pre/postemergence giant foxtail; format: in vivo, Setaria faberii
How it was run: as §1

morningglory = assay: Test B pre/postemergence morningglory; format: in vivo, Ipomoea hederacea
How it was run: as §1

pigweed = assay: Test B pre/postemergence pigweed; format: in vivo, Amaranthus retroflexus
How it was run: as §1

rape = assay: Test B pre/postemergence rape; format: in vivo, Brassica napus
How it was run: as §1

soybean = assay: Test B pre/postemergence soybean; format: in vivo, Glycine max
How it was run: as §1

sugar beet = assay: Test B pre/postemergence sugar beet; format: in vivo, Beta vulgaris
How it was run: as §1

velvetleaf = assay: Test B pre/postemergence velvetleaf; format: in vivo, Abutilon theophrasti
How it was run: as §1

wheat = assay: Test B pre/postemergence wheat; format: in vivo, Triticum aestivum
How it was run: as §1

wild oat = assay: Test B pre/postemergence wild oat; format: in vivo, Avena fatua
How it was run: as §1

purple nutsedge = assay: Test B pre/postemergence purple nutsedge; format: in vivo, Cyperus rotundus
How it was run: as §1

[1] = Postemergence, Rate 62 g/ha, scale 0 to 10, 0 is no effect, 10 is complete control
[2] = Postemergence, Rate 125 g/ha, scale of 0 to 10 where 0 is no effect and 10 is complete control
[3] = Postemergence, Rate 500 g/ha, scale 0 (no effect) to 10 (complete control)
[4] = Preemergence, Rate 250 g/ha, scale 0 (no effect) to 10 (complete control)
[5] = Rate 62 g/ha, Preemergence, scale 0 to 10
[6] = Rate 125 g/ha, Preemergence, scale 0 to 10 (0 no effect, 10 complete control)
[7] = Rate 250 g/ha, Postemergence, scale 0 to 10, 0 is no effect, 10 is complete control
[8] = Rate 500 g/ha, Preemergence, scale 0 to 10 (0 no effect, 10 complete control)

Compound: COC1CCC(Cn2c(=O)on(C(=O)N(c3ccc(F)cc3)C(C)C)c2=O)=NO1 (centres unmarked) [Compound 766]
- Plant response rating, Bedstraw (bedstraw; [1]): 0
- Bedstraw plant response rating (bedstraw; [2]): 0
- Bedstraw plant response rating (bedstraw; [3]): 3
- Bedstraw plant response rating (bedstraw; [4]): 10
- Bedstraw plant response rating (bedstraw; [5]): 4
- Bedstraw plant response rating (bedstraw; [6]): 9
- Bedstraw plant response rating (bedstraw; [7]): 0
- Bedstraw plant response rating (bedstraw; [8]): 9
- Plant response rating, Blackgrass (blackgrass; [1]): 0
- Blackgrass plant response rating (blackgrass; [2]): 5
- Blackgrass plant response rating (blackgrass; [4]): 8
- Blackgrass plant response rating (blackgrass; [5]): 0
- Blackgrass plant response rating (blackgrass; [6]): 7
- Blackgrass plant response rating (blackgrass; [7]): 6
- Blackgrass plant response rating (blackgrass; [8]): 9
- Plant response rating, B. signalgrass (surinam grass; [1]): 0
- B. signalgrass plant response rating (surinam grass; [2]): 2
- B. signalgrass plant response rating (surinam grass; [4]): 10
- B. signalgrass plant response rating (surinam grass; Rate 62 g/ha, Preemergence, scale 0 (no effect) to 10 (complete control)): 6
- B. signalgrass plant response rating (surinam grass; [6]): 8
- B. signalgrass plant response rating (surinam grass; [7]): 8
- B. signalgrass plant response rating (surinam grass; [8]): 10
- Plant response rating, Cocklebur (cocklebur; [1]): 0
- Cocklebur plant response rating (cocklebur; [2]): 0
- Cocklebur plant response rating (cocklebur; [3]): 6
- Cocklebur plant response rating (cocklebur; [5]): 0
- Cocklebur plant response rating (cocklebur; [6]): 0
- Cocklebur plant response rating (cocklebur; [7]): 2
- Cocklebur plant response rating (cocklebur; [8]): 0
- Plant response rating, Corn (corn; [1]): 0
- Corn plant response rating (corn; [2]): 0
- Corn plant response rating (corn; [3]): 4
- Corn plant response rating (corn; [4]): 0
- Corn plant response rating (corn; [5]): 0
- Corn plant response rating (corn; [6]): 0
- Corn plant response rating (corn; [7]): 4
- Corn plant response rating (corn; [8]): 3
- Plant response rating, Crabgrass (crabgrass; [1]): 2
- Crabgrass plant response rating (crabgrass; [2]): 6
- Crabgrass plant response rating (crabgrass; [3]): 9
- Crabgrass plant response rating (crabgrass; [4]): 10
- Crabgrass plant response rating (crabgrass; [5]): 9
- Crabgrass plant response rating (crabgrass; [6]): 9
- Crabgrass plant response rating (crabgrass; [7]): 6
- Crabgrass plant response rating (crabgrass; [8]): 10
- Plant response rating, Giant foxtail (giant foxtail; [1]): 0
- Giant foxtail plant response rating (giant foxtail; [2]): 8
- Giant foxtail plant response rating (giant foxtail; [3]): 9
- Giant foxtail plant response rating (giant foxtail; [4]): 9
- Giant foxtail plant response rating (giant foxtail; [5]): 9
- Giant foxtail plant response rating (giant foxtail; [6]): 9
- Giant foxtail plant response rating (giant foxtail; [7]): 9
- Giant foxtail plant response rating (giant foxtail; [8]): 10
- Plant response rating, Morningglory (morningglory; [1]): 2
- Morningglory plant response rating (morningglory; [2]): 2
- Morningglory plant response rating (morningglory; [3]): 2
- Morningglory plant response rating (morningglory; [5]): 2
- Morningglory plant response rating (morningglory; [6]): 3
- Morningglory plant response rating (morningglory; [7]): 2
- Morningglory plant response rating (morningglory; [8]): 3
- Plant response rating, Redroot pigweed (pigweed; [1]): 5
- Redroot pigweed plant response rating (pigweed; [2]): 6
- Redroot pigweed plant response rating (pigweed; [3]): 8
- Redroot pigweed plant response rating (pigweed; [5]): 9
- Redroot pigweed plant response rating (pigweed; [6]): 10
- Redroot pigweed plant response rating (pigweed; [7]): 6
- Redroot pigweed plant response rating (pigweed; [8]): 10
- Plant response rating, Rape (rape; [1]): 0
- Rape plant response rating (rape; [2]): 0
- Rape plant response rating (rape; [3]): 0
- Rape plant response rating (rape; [5]): 2
- Rape plant response rating (rape; [6]): 5
- Rape plant response rating (rape; [7]): 0
- Rape plant response rating (rape; [8]): 9
- Plant response rating, Soybean (soybean; [1]): 2
- Soybean plant response rating (soybean; [3]): 4
- Soybean plant response rating (soybean; [5]): 0
- Soybean plant response rating (soybean; [6]): 0
- Soybean plant response rating (soybean; [7]): 4
- Soybean plant response rating (soybean; [8]): 0
- Plant response rating, Sugarbeets (sugar beet; [1]): 0
- Sugarbeets plant response rating (sugar beet; [3]): 2
- Sugarbeets plant response rating (sugar beet; [5]): 2
- Sugarbeets plant response rating (sugar beet; [6]): 6
- Sugarbeets plant response rating (sugar beet; [7]): 2
- Sugarbeets plant response rating (sugar beet; [8]): 9
- Plant response rating, Velvetleaf (velvetleaf; [1]): 0
- Velvetleaf plant response rating (velvetleaf; [3]): 5
- Velvetleaf plant response rating (velvetleaf; [5]): 5
- Velvetleaf plant response rating (velvetleaf; [6]): 5
- Velvetleaf plant response rating (velvetleaf; [7]): 3
- Velvetleaf plant response rating (velvetleaf; [8]): 10
- Plant response rating, Wheat (wheat; [1]): 0
- Wheat plant response rating (wheat; [3]): 3
- Wheat plant response rating (wheat; [5]): 0
- Wheat plant response rating (wheat; [6]): 4
- Wheat plant response rating (wheat; [7]): 3
- Wheat plant response rating (wheat; [8]): 10
- Plant response rating, Wild oats (wild oat; [1]): 0
- Wild oats plant response rating (wild oat; [3]): 2
- Wild oats plant response rating (wild oat; [5]): 3
- Wild oats plant response rating (wild oat; [6]): 7
- Wild oats plant response rating (wild oat; [7]): 2
- Wild oats plant response rating (wild oat; [8]): 10
- Plant response rating, Nutsedge (purple nutsedge; [1]): 0
- Nutsedge plant response rating (purple nutsedge; [2]): 3
- Nutsedge plant response rating (purple nutsedge; [3]): 5
- Nutsedge plant response rating (purple nutsedge; [5]): 0
- Nutsedge plant response rating (purple nutsedge; [6]): 0
- Nutsedge plant response rating (purple nutsedge; [8]): 4

Reference: patent publication US6737383B1, “Herbicidal oxadiazolidines” (priority 1999, dated 2004)
